In patent publication US8293769B2, “CSF-1R inhibitors, compositions, and methods of use” (Novartis AG, priority 2008, dated 2012):

How the values were obtained:
PDGFRb = molecular target: T1, PDGFRb (Homo sapiens, UniProt P09619); test: PDGFRb kinase in vitro biochemical assay (alphascreen); details: tested at about 1 μM; read-out: PDGF RK BETA percent inhibition
T1 construct: The kinase domain of PDGFRβ was assayed in 50 mM Hepes; purchased Invitrogen P3082

cKIT = molecular target: T2, cKIT (Homo sapiens, UniProt P10721); test: cKIT kinase in vitro biochemical assay (alphascreen); details: tested at about 1 μM; read-out: CKIT percent inhibition
T2 construct: The kinase domain of cKIT was assayed in 50 mM Hepes; purchased Upstate 14-559
T2 sequence (P10721 589-937 limits assumed): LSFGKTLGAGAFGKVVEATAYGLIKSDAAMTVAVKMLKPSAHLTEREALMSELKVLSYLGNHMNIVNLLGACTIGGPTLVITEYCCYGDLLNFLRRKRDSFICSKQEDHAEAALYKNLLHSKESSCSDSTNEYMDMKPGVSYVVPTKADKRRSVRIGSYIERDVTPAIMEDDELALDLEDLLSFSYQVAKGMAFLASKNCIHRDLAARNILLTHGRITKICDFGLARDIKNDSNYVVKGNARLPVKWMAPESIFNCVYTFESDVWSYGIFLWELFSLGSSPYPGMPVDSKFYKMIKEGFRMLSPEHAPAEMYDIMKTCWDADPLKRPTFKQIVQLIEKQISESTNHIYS

[1] = molecular target: T3, cytoplasmic domain of the human CSF-1R (Homo sapiens, UniProt P07333); test: In vitro kinase assay for CSF-1R (AlphaScreen); assay type: biochemical; details: tested at about 1 μM; read-out: CSF1RK 1 percent inhibition
T3 construct: Recombinant protein corresponding to the cytoplasmic domain of the human CSF-1R; purchased Invitrogen Corporation, Carlsbad, Calif; PV3249
T3 sequence (P07333 539-972 limits assumed): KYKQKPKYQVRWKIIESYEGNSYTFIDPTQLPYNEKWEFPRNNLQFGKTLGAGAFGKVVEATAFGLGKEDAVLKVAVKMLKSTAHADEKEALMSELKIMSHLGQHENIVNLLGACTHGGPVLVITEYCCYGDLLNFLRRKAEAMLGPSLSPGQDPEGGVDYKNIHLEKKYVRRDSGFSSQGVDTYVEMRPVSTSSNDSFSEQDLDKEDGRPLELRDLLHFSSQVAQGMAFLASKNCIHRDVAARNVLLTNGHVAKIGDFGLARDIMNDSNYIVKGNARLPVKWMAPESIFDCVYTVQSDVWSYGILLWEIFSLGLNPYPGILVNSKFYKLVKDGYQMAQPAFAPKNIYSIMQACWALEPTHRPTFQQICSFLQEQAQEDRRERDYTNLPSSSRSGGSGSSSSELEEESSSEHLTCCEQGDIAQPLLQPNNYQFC
Outline: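 Recombinant CSF-1R cytoplasmic domain (4 nM) phosphorylated biotinylated peptide (0.05 μM) at 1.0 μM ATP in HEPES with Mg2+/Mn2+, 2 h at room temperature, compounds from 25 μM in 3-fold steps. AlphaScreen anti-phosphotyrosine PT66 detection; IC50 by non-linear regression.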

[2] = system: MNFS60 (murine AML cells); test: Cell viability assay in MCSF dependent MNFS60 cells (Cell Titer Glo); assay type: cell-based; details: Mus musculus; tested at about 1 μM; MCSF 10 ng/mL, 72 hrs; read-out: CPEC50 MNFS60MCSF percent inhibition
Description: Cell viability was assessed by Cell Titer Glo, Promega. MNFS60 (murine AML cells) were seeded in TC treated 96-well plates at a density of 5,000 cells per well in RPMI-1640, 10% FBS, and 1% Penicillin Streptomycin prior to addition of compound. Test compounds were serially diluted (3 fold) in DMSO to 500× the final concentration. For each concentration of test compound, 2 μl (500×) aliquots of compound or 100% DMSO (control) were diluted in 500 μl of culture medium that contained 2× final concentration of growth factor MCSF for 2× concentration and then diluted 1× on the cells. Final concentration of MCSF is 10 ng/mL. Cells were incubated for 72 hrs at 37° C., 5% CO2. After the incubation 100 μl Cell Titer Glo is added to each well to determine viable cells. The assay was performed according to the manufacturer's instruction (Promega Corporation, Madison, Wis. USA). Each experimental condition was performed in triplicate. Raw data was imported in Abase and EC50s calculated with XL-fit data analysis software: Relative light units of wells that contained cells without MCSF in the media and as a consequence didn't grow were defined as 100% inhibited.

T1 sequence (P09619 600-962 limits assumed): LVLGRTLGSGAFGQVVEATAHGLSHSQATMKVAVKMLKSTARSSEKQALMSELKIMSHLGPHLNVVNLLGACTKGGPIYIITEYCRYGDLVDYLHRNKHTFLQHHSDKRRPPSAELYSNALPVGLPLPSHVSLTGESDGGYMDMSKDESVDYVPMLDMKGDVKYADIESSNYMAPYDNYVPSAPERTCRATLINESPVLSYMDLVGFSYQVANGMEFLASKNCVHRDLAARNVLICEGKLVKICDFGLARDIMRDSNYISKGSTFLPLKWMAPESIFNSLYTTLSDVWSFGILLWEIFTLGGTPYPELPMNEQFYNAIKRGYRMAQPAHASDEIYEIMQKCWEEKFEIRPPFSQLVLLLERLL

Row | SMILES | inhibition at 1 µM (PDGFRb) [%] | inhibition at 1 µM (cKIT) [%] | inhibition at 1 µM [1] [%] | inhibition at 1 µM [2] [%]
1 | CNc1cc(Oc2ccc3nc(NCC4CCCCC4)sc3c2)ncn1 [Compound 13, N-(cyclohexylmethyl)-6-(6-(methylamino)pyrimidin-4-yloxy)benzo[d]thiazol-2-amine] | 30 | 42 | 98 | 18
2 | COc1cc2ncnc(Oc3ccc4nc(NCC5CCCCC5)sc4c3)c2cc1OC [Compound 17, N-(cyclohexylmethyl)-6-(6,7-dimethoxyquinazolin-4-yloxy)benzo[d] thiazol-2-amine] | 98 | 99 | 100 | 100
3 | O[C@@H]1CCCC[C@H]1Nc1nc2ccc(Oc3ncnc4ccccc34)cc2s1 [Compound 18, (1R,2R)-2-(6-(quinazolin-4-yloxy)benzo[d]thiazol-2-ylamino)cyclohexanol] | 11 | 22 | 100 | 38
4 | COc1cc2ncnc(Oc3ccc4nc(N[C@@H]5CCCC[C@H]5O)sc4c3)c2cc1OC [Compound 19, (1R,2R)-2-(6-(6,7-dimethoxyquinazolin-4-yloxy)benzo [d]thiazol-2-ylamino) cyclohexanol] | 30 | 34 | 100 | 100
5 | Cn1cc(-c2cc(Oc3ccc4nc(NCC5CCCCC5)sc4c3)ncn2)cn1 [Compound 20, N-(cyclohexylmethyl)-6-(6-(1-methyl-1H-pyrazol-4-yl)pyrimidin-4-yloxy)benzo[d]thiazol-2-amine] | 82 | 99 | 100 | 96
6 | Cn1cc(-c2nccc(Oc3ccc4nc(NCC5CCCCC5)sc4c3)n2)cn1 [Compound 21, N-(cyclohexylmethyl)-6-(2-(1-methyl-1H-pyrazol-4-yl)pyrimidin-4-yloxy) benzo[d]thiazol-2-amine] | 92 | 100 | 100 | 100
7 | Cn1cc(-c2cc(Oc3ccc4nc(N[C@@H]5CCCC[C@H]5O)sc4c3)ncn2)cn1 [Compound 22, (1R,2R)-2-(6-(6-(1-methyl-1H-pyrazol-4-yl)pyrimidin-4-yloxy)benzo[d]thiazol-2-ylamino) cyclohexanol] | 11 | 29 | 100 | 100
8 | Cn1cc(-c2nccc(Oc3ccc4nc(N[C@@H]5CCCC[C@H]5O)sc4c3)n2)cn1 [Compound 23, (1R,2R)-2-(6-(2-(1-methyl-1H-pyrazol-4-yl)pyrimidin-4-yloxy)benzo[d]thiazol-2-ylamino) cyclohexanol] | 7 | 19 | 100 | 100
9 | c1cc(-n2cncn2)cc(Oc2ccc3nc(NCC4CCCCC4)sc3c2)n1 [Compound 24, 6-(4-(1H-1,2,4-triazol-1-yl)pyridin-2-yloxy)-N-(cyclohexylmethyl)benzo[d]thiazol-2-amine] | 9 | 7 | 44 | 0
10 | Cn1nccc1-c1cc(Oc2ccc3nc(N[C@@H]4CCCC[C@H]4O)sc3c2)ncn1 [Compound 25, (1R,2R)-2-(6-(6-(1-methyl-1H-pyrazol-5-yl)pyrimidin-4-yloxy)benzo[d]thiazol-2-ylamino) cyclohexanol] | 0 | 22 | 69 | 14
11 | Cn1nccc1-c1nccc(Oc2ccc3nc(N[C@@H]4CCCC[C@H]4O)sc3c2)n1 [Compound 26, (1R,2R)-2-(6-(2-(1-methyl-1H-pyrazol-5-yl)pyrimidin-4-yloxy)benzo[d]thiazol-2-ylamino) cyclohexanol] | 20 | 24 | 100 | 19
12 | Nc1ccc(-c2nccc(Oc3ccc4nc(N[C@@H]5CCCC[C@H]5O)sc4c3)n2)cn1 [Compound 29, (1R,2R)-2-(6-(2-(6-aminopyridin-3-yl)pyrimidin-4-yloxy)benzo[d]thiazol-2-ylamino)cyclohexanol] | 11 | 13 | 100 | 76
13 | C[C@H](Nc1nc2ccc(Oc3ccnc(-c4cnn(C)c4)n3)cc2s1)C1CCCCC1 [Compound 30, (S)-N-(1-cyclohexylethyl)-6-(2-(1-methyl-1H-pyrazol-4-yl)pyrimidin-4-yloxy)benzo[d] thiazol-2-amine] | 21 | 24 | 100 | 100
14 | C[C@H](Nc1nc2ccc(Oc3ccnc(-c4ccc(N)nc4)n3)cc2s1)C1CCCCC1 [Compound 33, (S)-6-(2-(6-aminopyridin-3-yl)pyrimidin-4-yloxy)-N-(1-cyclohexylethyl) benzo[d]thiazol-2-amine] | 22 | 32 | 100 | 78
15 | C[C@H](Nc1nc2ccc(Oc3ccnc(-c4ccnn4C)n3)cc2s1)C1CCCCC1 [Compound 34, (S)-N-(1-cyclohexylethyl)-6-(2-(1-methyl-1H-pyrazol-5-yl)pyrimidin-4-yloxy)benzo[d]thiazol-2-amine] | 6 | 21 | 100 | 19
16 | c1nc(Oc2ccc3nc(NCC4CCCCC4)sc3c2)c2ccsc2n1 [Compound 37, N-(cyclohexylmethyl)-6-(thieno[2,3-d]pyrimidin-4-yloxy) benzo[d]thiazol-2-amine] | 39 | 75 | 100 | 0
17 | C[C@H](Nc1nc2ccc(Oc3cc(-n4cncn4)ncn3)cc2s1)C1CCCCC1 [Compound 41, (S)-6-(6-(1H-1,2,4-triazol-1-yl)pyrimidin-4-yloxy)-N-(1-cyclohexylethyl) benzo[d]thiazol-2-amine] | 0 | 28 | 99 | 0
18 | Cn1ncc2c(Oc3ccc4nc(NCC5CCCCC5)sc4c3)ncnc21 [Compound 44, N-(cyclohexylmethyl)-6-(1-methyl-1H-pyrazolo[3,4-d]pyrimidin-4-yloxy)benzo[d]thiazol-2-amine] | 19 | 14 | 99 | 0
19 | Cn1cc(-c2cncc(Oc3ccc4nc(N[C@@H]5CCCC[C@H]5O)sc4c3)c2)cn1 [Compound 46, (1R,2R)-2-(6-(5-(1-methyl-1H-pyrazol-4-yl)pyridin-3-yloxy)benzo[d]thiazol-2-ylamino)cyclohexanol] | 12 | 60 | 100 | 100
20 | Nc1ccc(-c2cncc(Oc3ccc4nc(N[C@@H]5CCCC[C@H]5O)sc4c3)c2)cn1 [Compound 47, (1R,2R)-2-(6-(6′-amino-3,3′-bipyridin-5-yloxy)benzo[d]thiazol-2-ylamino) cyclohexanol] | 1 | 63 | 100 | 100
21 | CNC(=O)c1ccc(Oc2ccc3nc(NCC4CCCCC4)sc3c2)cn1 [Compound 48, 5-(2-(cyclohexylmethylamino)benzo [d]thiazol-6-yloxy)-N-methylpicolinamide] | 8 | 22 | 96 | 0
22 | CNC(=O)c1cncc(Oc2ccc3nc(N[C@@H](C)C4CCCCC4)sc3c2)n1 [Compound 51, (S)-6-(2-(1-cyclohexylethylamino)benzo[d]thiazol-6-yloxy)-N-methylpyrazine-2-carboxamide] | 14 | 32 | 97 | 3
